Laboratory results from patent publication US20210196793A1, “Pharmaceutical Combination Comprising Epidermal Growth Factor and Secretagogue Peptide GHRP6 for the Restoration of Brain Damage” (CENTRO DE INGENIERÍA GENÉTICA Y BIOTECNOLOGÍA, priority 2018, published 2021).

Tested on: patients with Amyotrophic Lateral Sclerosis
Experiment: Patients with Amyotrophic Lateral Sclerosis, ALSFRS-R functional scale
Type: in vivo, human
Settings: for ALSFRS-R before treatment: baseline
Method: Forty patients with definite diagnosis of Amyotrophic Lateral Sclerosis were treated with EGF 0.6 μg/kg of body weight, and GHRP6 60 μg/kg of body weight, intravenously, every other day, during 6 months, together with Rilutek® (Riluzole). Previously, these patients were stratified according to the origin of the disease, spinal (n=25) or bulbar (n=15). Another group of 30 patients with definite diagnosis of Amyotrophic Lateral Sclerosis, also stratified according to origin, spinal (n=21) or bulbar (n=9), were treated only with Rilutek®.
Before the beginning and after the end of the trial, all patients were evaluated using the functional scale for Amyotrophic Lateral Sclerosis (ALSFRS-R). The ALSFRS-R scale is usually used for the neurological and functional evaluation of patients with said disease. This scale includes various functional items, such as those related to language, salivation, swallowing, the ability to write, handling eating utensils, dressing and sanitizing, turning in bed, climbing stairs, and breathing.

Structure (SMILES): Nc1nc2ccc(OC(F)(F)F)cc2s1 [Rilutek ®, Riluzole]
- clinical improvement (salivation, swallowing, breathing, dysarthria) (after 6 months of treatment, spinal and bulbar onset): None of the latter was observed
- ALSFRS-R after the treatment (bulbar origin, after 6 months of treatment): 33.1 ± 8.32
- ALSFRS-R before treatment (bulbar origin): 35.1 ± 6.2
- ALSFRS-R after the treatment (spinal origin, after 6 months of treatment): 38.2 ± 3.34
- ALSFRS-R before treatment (spinal origin): 38.7 ± 4.4
